According to patent publication US7772271B2 (priority 2004, dated 2010):

melting point [°C]	SMILES
197 to 199	CC(C)OC(=O)Nc1ccc(-c2c(C#N)c3ccc(OC4CCOCC4)cc3n2C2CCC2)cc1 [compound 2616, {4-[3-cyano-1-cyclobutyl-6-(tetrahydro-pyran-4-yloxy)-1H-indole-2-yl]-phenyl}-carbamic acid isopropyl ester]
89 to 112	COCCOc1ccc2c(C#N)c(-c3ccc(NC(=O)OC(C)c4ccc(F)cc4)cc3)n(C(C)C)c2c1 (stereo not shown) [Compound 2687]
211 to 213	CC(C)S(=O)(=O)Nc1ccc(-c2c(C#N)c3ccc(OC4CCOCC4)cc3n2C2CCC2)cc1 [Compound 2748]
234 to 235	CC(C)NC(=O)Nc1ccc(-c2c(C#N)c3ccc(N4CCOCC4)cc3n2C2CCC2)cc1 [Compound 2862]
112 to 115	CC(OC(=O)Nc1ccc(-c2c(C#N)c3ccc(OC4CCOC4)cc3n2C2CC2)cc1)c1ccccc1 (stereo not shown) [Compound 1445]
121 to 124	N#Cc1c(-c2ccc(NCCCc3ccccc3)cc2)n(C2CCC2)c2cc(OCCF)ccc12 [Compound 3240]
203 to 204	CS(=O)(=O)CCCOc1ccc2c(C#N)c(-c3ccc(NS(=O)(=O)C4CC4)cc3)n(C3CCC3)c2c1 [Compound 2957]
105 to 107	CCC(C)NC(=O)c1ccc2c(C#N)c(-c3ccc(NS(=O)(=O)C4CC4)cc3)n(C3CCC3)c2c1 (stereo not shown) [Compound 2295]
163 to 165	C[C@@H](OC(=O)Nc1ccc(-c2c(C#N)c3ccc(N4CCOCC4)cc3n2C2CCC2)cc1)c1ccc(F)cc1 [Compound 2865]
174 to 175	N#Cc1c(-c2ccc(NC(=O)O[C@@H](c3ccccc3)C(F)(F)F)cc2)n(C2CCC2)c2cc(OCC3OCCO3)ccc12 [Compound 2805]
127 to 129	CCC(CC)OC(=O)Nc1ccc(-c2c(C#N)c3ccc(OC4CCOCC4)cc3n2C2CCC2)cc1 [Compound 2617]
154 to 160	COCCOc1ccc2c(C#N)c(-c3ccc(C(=O)NCc4ccc(F)cc4)cc3)n(C3CCC3)c2c1 [Compound 3134]
220 to 222	C[C@@H](OC(=O)Nc1ccc(-c2c(C#N)c3ccc(-c4ccccn4)cc3n2C2CCC2)cc1)C(F)(F)F [Compound 2959]
153 to 160	CCOc1ccc2c(C#N)c(-c3ccc(N(CC)C(=O)NC4CCCC4)cc3)n(C3CCC3)c2c1 [compound 1425, 1-[4-(3-cyano-1-cyclobutyl-6-ethoxy-1H-indol-2-yl)-phenyl]-3-cyclopenyl-1-ethyl-urea]
172 to 174	Cc1ccnc(Oc2ccc3c(C#N)c(-c4ccc(NS(=O)(=O)C5CC5)cc4)n(C4CCC4)c3c2)n1 [Compound 2903]
184 to 185	CC(OC(=O)Nc1ccc(-c2c(C#N)c3ccc(OCC(F)F)cc3n2C2CCC2)cc1Cl)C(F)(F)F (stereo not shown) [Compound 3051]
125 to 126	COCCOc1ccc2c(C#N)c(-c3ccc(NC(=O)OC(C)C)cc3)n(C3CCC3)c2c1 [Compound 1399]
199 to 201	C[C@@H](OC(=O)Nc1ccc(-c2c(C#N)c3ccc(-c4ncccc4[N+](=O)[O-])cc3n2C2CCC2)cc1)C1CC1 [Compound 3247]
152 to 155	CCn1c(-c2ccc(NC(=O)N3CCC(C)CC3)cc2)c(C#N)c2ccc(OCCOC)cc21 [Compound 1379]
74 to 76	COCCOc1ccc2c(C#N)c(-c3ccc(NC(=O)OC(C)c4ccc(F)cc4)cc3)n(C3CC3)c2c1 (stereo not shown) [Compound 1439]
167 to 168	C=CCNC(=O)Oc1ccc(-c2c(C#N)c3ccc(OC4CCOCC4)cc3n2C2CCC2)cc1 [Compound 3110]

melting point [°C]	SMILES
264	CC(C)NC(=O)Nc1ccc(-c2c(C#N)c3ccc(N4CCOCC4)cc3n2C2CC2)cc1 [Compound 2855]
199 to 201	CCNS(=O)(=O)Nc1ccc(-c2c(C#N)c3ccc(OC4CCOCC4)cc3n2C2CCC2)cc1 [Compound 2834]
185 to 190	CCOc1ccc2c(C#N)c(-c3ccc(NC(=O)OC4CCN(C(=O)OCCOC)CC4)cc3)n(C3CCC3)c2c1 [Compound 3073]
205 to 212	CCc1cnc(Oc2ccc3c(C#N)c(-c4ccc(NC(=O)O[C@H](C)C5CC5)cc4Cl)n(C4CCC4)c3c2)nc1 [Compound 3060]
198 to 202	CC(C)CS(=O)(=O)Nc1ccc(-c2c(C#N)c3ccc(N4CCCCC4)cc3n2C2CCC2)cc1 [Compound 2982]
208 to 210	CC(C)OC(=O)Nc1ccc(-c2c(C#N)c3ccc(OC4COCOC4)cc3n2C2CCC2)cc1 [Compound 2894]
168 to 172	Cc1ccccc1CNc1ccc(-c2c(C#N)c3ccc(OC4CCOCC4)cc3n2C2CCC2)cc1 [Compound 3121]
224 to 226	CC(C)Nc1ccc(-c2c(C#N)c3ccc(Oc4nccnc4C#N)cc3n2C2CC2)cc1 [Compound 3212]
145 to 147	C[C@@H](OC(=O)Nc1ccc(-c2cc3ccc(Oc4nccnc4C#N)cc3n2CC2CC2)cc1)C1CC1 [Compound 3283]
209 to 211	N#C/N=C(/Nc1ccc(-c2c(C#N)c3ccc(OC4CCOCC4)cc3n2C2CCC2)cc1)NC1CCCCC1 [Compound 3176]
225 to 228	CCCS(=O)(=O)Nc1ccc(-c2c(C#N)c3ccc(Oc4nccnc4C#N)cc3n2C2CC2)c(C)c1 [Compound 3305]
182 to 185	CCn1c(-c2ccc(NC(=O)NC(C)C)cc2)c(C#N)c2ccc(OCCOC)cc21 [Compound 1405]
96.5 to 100.6	CCn1c(-c2ccc(NC(=O)C3CC3)cc2)c(C#N)c2ccc(OCCNCCN3CCOCC3)cc21 [Compound 1394]
183 to 184	CC(OC(=O)Nc1ccc(-c2c(C#N)c3ccc(OC4CCOC4)cc3n2C2CCC2)cc1)C(F)(F)F (stereo not shown) [Compound 1457]
207 to 210	COc1ccc(Nc2ccc(-c3c(C#N)c4ccc(OC5CCOCC5)cc4n3C3CCC3)cc2)cc1 [Compound 3128]
236 to 238	N#Cc1nccnc1Oc1ccc2c(C#N)c(-c3ccc(NS(=O)(=O)C4CCC4)cc3)n(CC3CC3)c2c1 [Compound 3295]
216 to 217	CCCS(=O)(=O)Nc1ccc(-c2c(C#N)c3ccc(Oc4ncccc4C(F)(F)F)cc3n2C2CC2)cc1 [Compound 2935]
211 to 212	N#Cc1c(-c2ccc(Nc3ccccn3)cc2)n(C2CCC2)c2cc(OC3CCOCC3)ccc12 [Compound 3163]
178 to 184	CCOc1ccc2c(F)c(-c3ccc(NC(=O)OC(C)C)cc3)n(CC3CC3)c2c1 [compound 2640, [4-(1-Cyclopropylmethyl-6-ethoxy-3-fluoro-1H-indol-2-yl)-phenyl]-carbamic acid isopropyl ester]
240 to 246	N#Cc1c(-c2ccc(NC(=O)OC3CCS(=O)(=O)CC3)cc2)n(C2CC2)c2cc(Oc3ncccn3)ccc12 [Compound 3269]
149 to 150	CC(OC(=O)Nc1ccc(-c2c(C#N)c3cc(OCCCn4cncn4)ccc3n2C2CCC2)cc1)C1CCC1 (stereo not shown) [Compound 2730]

SMILES	melting point [°C]
CC(C)OC(=O)Nc1ccc(-c2c(C#N)c3ccc(OCCC(O)CO)cc3n2C2CCC2)cc1 (stereo not shown) [compound 1429, {4-[3-cyano-1-cyclobutyl-6-(3,4-dihydroxy-butoxy)-1H-indol-2-yl]-phenyl}-carbamic acid isopropyl ester]	132 to 134
